Common to all, as to assay type: cell-based, human
The subject of assay [1] is PBMCs obtained from melanoma patients. Description: EPIMAX: PBMC culture with peptides or peptide clusters, multiplex bead cytokine assay (Luminex). To be noted: for IL-2 levels / IL-5 levels: patient of FIG. 10, individual MART-1 15-mer peptides #6 to #15, 48 h.
Assay [2] concerns CD4+ / CD8+ T cells in melanoma patient PBMCs. Description: CFSE dilution T cell proliferation assay, melanoma patient PBMCs. The text has this:
FIG. 13 depicts the immune response of a melanoma patient as evaluated according the present invention. CFSE (5,6-carboxyfluorescein diacetate succinimidyl ester) is a tracer dye that permits to identify the number of cell division with a flowcytometer. As EPIMAX is a non-destructive assay, we combined with EPIMAX and CFSE technology to determine the proliferative capacity of antigen-specific T cells. […] PBMCs obtained from the same melanoma patient (same as FIG. 10) were first stained with 1 uM of CFSE, and stimulated with either clusters of overlapping peptides or individual peptides encoding MART-1. On day 8 of culture, the cells were stained with CD8-PE, CD3-PerCP, and CD4-APC, and analyzed T cell proliferation in response to peptide stimulation.
FIG. 14 depicts the immune response of a melanoma patient as evaluated according the present invention. PBMCs obtained from the same melanoma patient (same as FIG. 10) were first stained with 1 μM of CFSE, and stimulated with individual peptides encoding MART-1 in triplicates. On day 8 of culture, the cells were stained with CD8-PE, CD3-PerCP, and CD4-APC, and analyzed T cell proliferation in response to peptide stimulation.
FIGS. 21A-B depicts the immune response of a melanoma patient as evaluated according the present invention. PBMCs obtained from the same melanoma patient (same as FIG. 19) were first stained with 1 μM of CFSE, and stimulated with individual peptides encoding MART-1 in triplicates. On day 8 of culture, the cells were stained with CD8-PE, CD3-PerCP, and CD4-APC, and analyzed T cell proliferation in response to peptide stimulation. […] FIG. 21B depicts the CFSE-diluted CD4+ T cell populations in response to each MART-1 15-mer peptide within the CD4^+ T cell population.
FIGS. 22 A-C depicts the immune response of a melanoma patient as evaluated according the present invention. PBMCs obtained from a HLA-A2^neg melanoma patient who received DC vaccinations were first stained with 1 μM of CFSE, and stimulated with clusters of peptides encoding NY-ESO1. On day 8 of culture, the cells were stained with CD8-PE, CD3-PerCP, and CD4-APC, and analyzed T cell proliferation in response to peptide stimulation was analyzed based on CFSE dilution with a flowcytometer. […] FIG. 22B depicts the IL-2 levels in the culture supernatant at 48 hours of culture. […] To identify the epitope for CD4+ T cells, CFSE-stained PBMCs were stimulated with individual peptides within NY-ESO1 cluster#8. The proliferating CD4+ T cells were analyzed based on CFSE dilution with a flowcytometer on day 8.

In assay [3] the test system is T cells in melanoma patient PBMCs. In words: Intracellular cytokine detection assay (flow cytometry). On the procedure: FIG. 12A is a graph that depicts the immune response of a melanoma patient as evaluated according the present invention. PBMCs obtained before DC vaccination and post 8 DC vaccinations from a melanoma patient (same as FIG. 10) were stimulated with single 15-mer MART-1 peptides or diluent. The levels of IL-1a and IP-10 in the culture supernatants at 48 h of culture are shown. […] To examine this hypothesis, we used a different well-established methodology, intracellular cytokine detection assay. The same PBMCs were stimulated for 8 h with MART-1 15-mer single peptides in the presence of anti-CD28/CD49d mAb and monensin. After permeabilization of the cell membrane, the cells were stained with anti-IFN-γ mAb and the IFN-γ+ populations were analyzed with a flowcytometer (FIG. 12B).
The same patient's PBMCs were stimulated for 8 hours with MART-1 15-mer peptide#10 in the presence of antiCD28/CD49d mAb and monensin. The production of IL-2 were analyzed by staining with specific mAbs.
The same patient's PBMCs were stimulated for 8 hours with MART-1 15-mer peptide#11 in the presence of antiCD28/CD49d mAb and monensin. The production of IL-5 were analyzed by staining with specific mAbs.
FIGS. 29A-D are graphs that depict the immune response of a melanoma patients as evaluated according the present invention. PBMCs obtained from a melanoma patient were stimulated with clusters of peptides or individual peptides encoding NY-ESO1. IL-10 levels in culture supernatant at 48 hours of culture are shown (FIG. 29A). […] To explore the origin of IL-10 production, the PBMCs were stimulated with peptide#39 in the presence of anti CD28/CD49d mAbs and monensin for 8 hours, and stained with IL-10 specific mAb. […] Next, to evaluate whether this IL-10 producing T cells had regulatory properties, PBMCs stimulated with peptide #39 or irrelevant 15-mer peptide were added in transwells to a “third party” MLR to test suppression of T cell expansion by the release of soluble mediators. The MLR used CFSE-labeled CD4^+T cells and allogeneic mature DCs, both from healthy volunteers, in order to avoid the effect of peptide-specific T cell response.
On the technique in general: In flow cytometry, cells or beads pass a laser one at a time.

Where [4] appears, read: epitopes for Th0, Th1, Th2 cells, patient 094-015, Post.
The mark [5] stands for this setting: epitopes for Type-IL-10 CD4+ T cells, patient 094-004, Pre.
Setting [6] is: patient of FIG. 19, day 8 of culture.
Where [7] appears, read: 8 hours with antiCD28/CD49d mAb and monensin.
The mark [8] stands for this setting: epitopes for Th0, Th1, Th2 cells, patient 094-004, Post.
Setting [9] is: epitopes for Type-IL-10 CD4+ T cells, patient 094-004, Post.
Setting [10] is: epitopes for Type-IL-10 CD4+ T cells, patient 094-009, Pre.
Where [11] appears, read: epitopes for Type-IL-10 CD4+ T cells, patient 094-006, Pre.
Setting [12] is: epitopes for Th0, Th1, Th2 cells, patient 094-009, Post.
The mark [13] stands for this setting: epitopes for Type-IL-10 CD4+ T cells, patient 094-005, Pre.
The mark [14] stands for this setting: epitopes for Type-IL-10 CD4+ T cells, patient 094-010, Post.

“gp100 p1/p2: epitope region covered by gp100 15-mers p1 and p2 (MDLVLKRCLLHLAVIGAL; UniProt P40967 1-18, looked up, fragment)” came in with a Type of response in assay [1] (setting [4]) of 0. The proliferation result in assay [2] (setting [4]) is on record as “Yes”.
The substance “TRP-1 p113: 15-mer of TRP-1 library, residues 449-463 (NTEMFVTAPDNLGYT; UniProt P17643 449-463, looked up, fragment)” showed a Type of response in assay [1] (setting [5]) of 10. Also, the proliferation entry in assay [2] (setting [5]) is reported as “No”.
As to “MART-1 p11: 15-mer of MART-1 overlapping peptide library, residues 41-55 (LLIGCWYCRRRNGYR; UniProt Q16655 41-55, looked up, fragment)”, the Type of response in assay [1] (setting [4]) is given as 0. In assay [1], the IL-2 levels result is listed as “induced upregulation of IL-2” and the IL-5 levels entry is reported as “induced upregulation of IL-5”. Besides, in assay [2] (setting [4]), the proliferation entry was “Yes (CD4/CD8)”. The “CD4+ T cell proliferation (CFSE dilution)” value (from here on “CD4+ T cell proliferation”) in assay [2] (setting [6]) is listed as “induced significantly more proliferation of CD4^+ T cells than the other 15-mer peptides”. Besides, the “IL-5 production by CD4+ T cells” value in assay [3] (setting [7]) is recorded as “CD4^+ T cell populations producing IL-5”.
In assay [1] (setting [8]), “NY-ESO1 p38/p39: epitope region covered by NY-ESO1 15-mers p38 and p39, residues 149-167 (ISSCLQQLSLLMWITQCFL; UniProt P78358 149-167, looked up, fragment)” yielded a Type of response of 0. Further, in assay [2] (HLA-A2neg melanoma patient after DC vaccinations, NY-ESO1 clusters or single peptides, day 8), the “CD4+ T cell proliferation” value was “induced more proliferation of CD4^+ T cells”. In addition, the proliferation entry in assay [2] (setting [8]) is on record as “Yes”.
Consider “MART-1 p10: 15-mer of MART-1 overlapping peptide library, residues 37-51 (LGVLLLIGCWYCRRR; UniProt Q16655 37-51, looked up, fragment)”, for which the Type of response in assay [1] (setting [9]) and in assay [1] (setting [5]) was 10 each time. Further, the IL-2 levels entry in assay [1] was “induced upregulation of IL-2”. For the same substance, in assay [1], the IL-5 levels entry is given as “induced upregulation of IL-5”. In addition, the proliferation entry in assay [2] (setting [9]) and in assay [2] (setting [5]) was “No” throughout. Moreover, the “CD4+ T cell proliferation” value in assay [2] (setting [6]) is listed as “induced significantly more proliferation of CD4^+ T cells than the other 15-mer peptides”. Further, the “IL-2 production by CD4+ T cells” value in assay [3] (setting [7]) was “CD4+ T cell populations producing IL-2”.
Regarding “TRP-1 p118: 15-mer of TRP-1 library, residues 469-483 (PSREFSVPEIIAIAV; UniProt P17643 469-483, looked up, fragment)”, the Type of response in assay [1] (setting [8]) is 1. For the same substance, the proliferation entry in assay [2] (setting [8]) is listed as “Yes”.
As to “TRP-1 p50: 15-mer of TRP-1 library, residues 197-211 (KKTFLGVGQESFGEV; UniProt P17643 197-211, looked up, fragment)”, the Type of response in assay [1] (setting [10]) came out at 10. Also, the proliferation entry in assay [2] (setting [10]) is on record as “Marginal”.
With “MART-1 p8: 15-mer of MART-1 overlapping peptide library; table prints MART-1 37-51 (LGVLLLIGCWYCRRR; UniProt Q16655 37-51, looked up, fragment)”, in assay [1] (setting [11]), the Type of response stood at 10. The proliferation result in assay [2] (setting [11]) is listed as “No”.
Take “TRP-1 p48: 15-mer of TRP-1 library, residues 189-203 (VWTHYYSVKKTFLGV; UniProt P17643 189-203, looked up, fragment)”: in assay [1] (setting [12]), the Type of response is listed as 0. In addition, in assay [2] (setting [12]), the proliferation entry is “Yes”.
On to “gp100 p93: peptide of gp100 library, residues 369-384 as printed (AESTGMTPEKVPVSEV; UniProt P40967 369-384, looked up, fragment)”, for which the Type of response in assay [1] (setting [13]) was 10. Besides, in assay [2] (setting [13]), the proliferation entry is “No”.
“MART-1 p10/p11: epitope region covered by overlapping MART-1 15-mers p10 and p11, residues 37-55 (LGVLLLIGCWYCRRRNGYR; UniProt Q16655 37-55, looked up, fragment)”: the Type of response in assay [1] (setting [12]) is 2. The proliferation entry in assay [2] (setting [12]) was “Yes”.
The substance “MART-1 p13: 15-mer of MART-1 overlapping peptide library, residues 49-63 (RRRNGYRALMDKSLH; UniProt Q16655 49-63, looked up, fragment)” had a Type of response in assay [1] (epitopes for CD8+ T cells, patient 094-009, Post) of 1. Besides, in assay [1] (melanoma patient after DC vaccination series (FIG. 10), MART-1 library, 48 h), the “IL-1a and IP-10 levels; cluster analysis and epitope focusing” value is listed as “identified as epitopes for specific T cells”. Also, the “IL-1a and IP-10 levels” value in assay [1] (same patient as FIG. 10, Post-PBMC (post 8 DC vaccinations), 48 h) is “showed upregulation of IL-1a and IP-10”; in assay [1] (same patient as FIG. 10, Pre-PBMC (before DC vaccination), 48 h), “failed upregulation of IL-1a and IP-10”. Moreover, the “IL-1a and IP-10 levels, reproducibility” value in assay [1] (same patient as FIG. 10, thawed PBMC, experiment repeated three times, 48 h) was “Three out of 3 experiments revealed upregulation of IL-1a and IP-10”. In addition, in assay [2] (same patient as FIG. 10, day 8 of culture), the “CD8+ T cell proliferation (CFSE dilution)” value is recorded as “induced dilution of CFSE intensity in some CD8+ T cell populations”. In addition, the “CD8+ T cells producing IFN-g” value in assay [3] (Post-PBMC, 8 h stimulation with anti-CD28/CD49d mAb and monensin) is reported as “about 0.15%”. The “IFN-g production by CD8+ T cells” value in assay [3] (Pre-PBMC, 8 h stimulation with anti-CD28/CD49d mAb and monensin) is reported as “no IFN-g production was detected”.
Regarding “NY-ESO1 p23: 15-mer of NY-ESO1 library, residues 89-103 (EFYLAMPFATPMEAE; UniProt P78358 89-103, looked up, fragment)”, the Type of response in assay [1] (setting [14]) amounted to 10; in assay [1] (epitopes for Type-IL-10 CD4+ T cells, patient 094-*013, Post), 10. Moreover, the proliferation entry in assay [2] (setting [14]) is reported as “Yes”.
Consider “TRP-1 p124: 15-mer of TRP-1 library, residues 493-507 (IFGTASYLIRARRSM; UniProt P17643 493-507, looked up, fragment)”, for which, in assay [1] (setting [8]), the Type of response came out at 1. In addition, the “CD4+ T cell epitope identification (cytokines at 48 h, CFSE dilution day 8)” value in assay [1] (two melanoma patients, peptides of TRP-1 cluster#25 or gp100 cluster#15) is listed as “are epitopes for CD4^+ T cells”. Moreover, the proliferation entry in assay [2] (setting [8]) is “Yes”.

Values taken from US20060051358A1, “Immune response assessment method” (Baylor Research Institute, priority 2004, published 2006).
